± gives the expanded uncertainty stated by the source.
Experiment: molar heat capacity at saturation pressure
Settings: Liquid, Vacuum adiabatic calorimetry

CC(C)C [2-methylpropane]
Settings	molar heat capacity [J/K/mol]
116.8 K	99.97 ± 0.3
119.57 K	100.39 ± 0.3
122.23 K	100.86 ± 0.3
124.96 K	101.19 ± 0.3
127.55 K	101.83 ± 0.3
130.24 K	102.1 ± 0.3
132.77 K	102.54 ± 0.3
135.42 K	103.17 ± 0.3
137.9 K	103.68 ± 0.3
140.51 K	103.94 ± 0.3
142.95 K	104.41 ± 0.3
145.52 K	104.91 ± 0.3
147.92 K	105.3 ± 0.3
150.47 K	105.75 ± 0.31
152.83 K	106.16 ± 0.31
155.34 K	106.5 ± 0.31
157.66 K	107.02 ± 0.31
160.15 K	107.18 ± 0.31
162.44 K	107.78 ± 0.31
164.89 K	108.27 ± 0.31
167.16 K	108.62 ± 0.31
169.58 K	109.08 ± 0.31
171.82 K	109.17 ± 0.31
174.21 K	110.08 ± 0.31
176.43 K	110.08 ± 0.31
178.8 K	110.97 ± 0.31
180.99 K	111.25 ± 0.31
183.33 K	112.12 ± 0.31
185.5 K	112 ± 0.31
187.82 K	112.78 ± 0.31
189.97 K	112.81 ± 0.31
192.26 K	113.22 ± 0.31
194.39 K	113.72 ± 0.31
196.66 K	114.21 ± 0.31
198.77 K	114.75 ± 0.32
201.01 K	115.05 ± 0.32
203.11 K	115.61 ± 0.32
205.34 K	115.9 ± 0.32
207.41 K	116.35 ± 0.32
209.61 K	116.79 ± 0.32
211.67 K	117.4 ± 0.32
213.86 K	117.52 ± 0.32
215.9 K	118.12 ± 0.32
218.07 K	118.51 ± 0.32
220.09 K	118.79 ± 0.32
222.24 K	119.63 ± 0.32
224.25 K	119.86 ± 0.32
226.39 K	120.61 ± 0.32
228.38 K	121.07 ± 0.32
230.5 K	121.62 ± 0.32
232.48 K	121.93 ± 0.32
234.59 K	122.3 ± 0.32
236.55 K	122.62 ± 0.32
238.65 K	123.75 ± 0.32
240.59 K	123.7 ± 0.32
242.68 K	124.31 ± 0.32
244.61 K	124.72 ± 0.33
246.68 K	125.15 ± 0.33
248.6 K	125.88 ± 0.33
250.66 K	126.37 ± 0.33
252.57 K	126.78 ± 0.33
254.62 K	127.78 ± 0.33
256.52 K	127.81 ± 0.33
258.55 K	128.92 ± 0.33
260.45 K	128.69 ± 0.33
262.47 K	129.62 ± 0.33
264.35 K	129.86 ± 0.33
266.37 K	130.48 ± 0.33
268.24 K	131.47 ± 0.33
270.24 K	131.7 ± 0.33
272.11 K	132.45 ± 0.33
274.1 K	133.44 ± 0.33
275.96 K	133.56 ± 0.33
277.94 K	134.24 ± 0.33
279.8 K	134.7 ± 0.34
281.76 K	135.37 ± 0.34
283.62 K	135.69 ± 0.34
285.57 K	136.15 ± 0.34
287.43 K	137.7 ± 0.34
289.37 K	137.5 ± 0.34
291.23 K	138.84 ± 0.34
293.15 K	139.14 ± 0.34
295.01 K	139.36 ± 0.34
296.93 K	140.12 ± 0.34
298.78 K	140.84 ± 0.34
300.68 K	141.15 ± 0.34
302.54 K	142.6 ± 0.34
306.3 K	143.77 ± 0.34
308.17 K	143.87 ± 0.34
310.04 K	144.87 ± 0.34
311.91 K	146 ± 0.35
313.77 K	146.62 ± 0.35
315.63 K	147.42 ± 0.35
